Data on 13 compounds can be found in patent US8901118B2, “Compounds and methods for kinase modulation, and indications therefor” (Plexxikon Inc., priority 2010, dated 2014).

The target in one test is T1, BCR-FMS BaF3 cells (Homo sapiens, UniProt P07333).
T1 construct: fused on or other part: P11274 (Breakpoint cluster region protein)
T1 sequence (P07333 582-910): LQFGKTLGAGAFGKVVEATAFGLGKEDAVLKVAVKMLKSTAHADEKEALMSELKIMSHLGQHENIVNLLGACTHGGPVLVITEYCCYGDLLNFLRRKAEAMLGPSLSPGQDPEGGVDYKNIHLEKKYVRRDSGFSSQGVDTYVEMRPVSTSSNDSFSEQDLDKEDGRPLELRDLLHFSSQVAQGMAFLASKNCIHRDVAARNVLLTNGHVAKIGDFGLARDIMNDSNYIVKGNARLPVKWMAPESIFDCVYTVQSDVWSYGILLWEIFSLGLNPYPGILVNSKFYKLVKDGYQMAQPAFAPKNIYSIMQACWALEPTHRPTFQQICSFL
The test is described as follows: BaF3 BCR-FMS cell proliferation assay (ATPlite). It is filed as cell-based. Particulars: read-out: Inhibition of Cell Proliferation IC50, BCR/BaF3 Fms. The method, then:
(§1) Compounds are assessed in a variety of cell based assays. For example BaF3 cells engineered with any of BCR-FMS, BCR-KIT, BCR-FLT3, BCR-NTRK1, BCR-NTRK2, and BCR-NTRK3, are used in cell proliferation assays to assess inhibitory activity of Fms, Kit, Flt-3, TrkA, TrkB, and TrkC, respectively. An MV-4-11 (leukemia) cell proliferation assay is used to assess inhibitory activity in Flt-3, and SKNSH (human neuroblastoma) cell proliferation assay is used to assess efficacy of Fms/Trk inhibitors. Additional cells may be assayed similarly to assess the efficacy of Fms/Trk inhibitors, such as MiaPaCa (human pancreatic cancer) and Capan-1 (human pancreatic carcinoma) cells. Reagent and assay conditions are as follows: • BaF3 cells: • Maintained in RPMI containing 10% FBS, 1% PenStrep, 1% NEAA, and 1% L-Glutamine, supplemented with 1 mg/mL G418 and 5% WEHI-CM (or recombinant murine IL-3). • Confluent cells are split 1:50 to 1:100 every 3-4 days. • MV-4-11 cells: • Maintained in Iscove's Modified Dulbecco's Medium containing 10% FBS. • Confluent cells are split 1:4 every 3-4 days. • SKNSH cells: RPMI containing 10% FBS. On day 1, cells are counted, then centrifuged in a conical tube for 5 minutes at 1000 rpm. The supernatant is removed and cells are re-suspended as follows: • BaF3: resuspend in growth media +1 mg/mL G418 (without WEHFIL-3) to 2×10^5 cells/mL. • MV-4-11: resuspend in growth media to 5×10^5 cells/mL. • SKNSH: resuspend in growth media to 2×10^4 cells/mL. The cells are plated (50 μL, 150 μL for SKNSH cells) in each well of a 96-well dish (Corning 3610) and incubated at 37° C. in 5% CO2 overnight, cells plated to a final concentration of cells as follows: • BaF3: 10,000 cells per well. • MV-4-11: 25,000 cells per well. • SKNSH: 3,000 cells per well. On day 2, compound at a maximum concentration of 5 mM is serially diluted 1:3 for a total of 8 point titration with DMSO as a control. A 1 μL aliquot of each dilution point is added to 249 μL growth media and 50 μL is added to a well containing cells, providing 10 μM compound for the maximum concentration point. The cells are incubated for 3 days at 37° C. in 5% CO2. For SKNSH cells, a 0.75 μL aliquot of appropriate dilution in DMSO is added to 150 μL of cells. On day 5, ATPlite 1 step Luminescence Assay System (Perkin Elmer #6016739) is brought to room temperature along with the cell cultures. ATPlite is added to each well as follows: • BaF3: 25 μL per well. • MV-4-11: 40 μL per well. • SKNSH: 20 μL per well. The cells are incubated at room temperature for 10 minutes, then luminescence is read on Safire reader. The measured luminescence correlates directly with cell number, such that the reading as a function of compound concentration is used to determine the IC50 value.
(§2) It is understood that the results of these assays may vary as assay conditions are varied. Inhibition levels determined under the conditions described herein represent a relative activity for the compounds tested under the specific conditions employed. The cell based assays are likely to show variability due to the complexity of the system and the sensitivity thereof to any changes in the assay conditions. […] Results for compounds that are tested and show substantially no inhibition below the highest tested concentration are represented as “-” in the tables below. In some instances, the compounds were not tested in all of the assays, or assay results were not valid, as indicated by NA in the tables below.

The target in another test is Fms kinase (Homo sapiens, UniProt P07333). Kind of test: Fms kinase biochemical activity assay (AlphaScreen, biotin-(E4Y)10 phosphorylation). To be noted: 100 μM ATP; read-out: Biochemical Inhibition IC50 Fms. How it is done:
In one assay the biochemical activity IC50 values are determined with respect to inhibition of Fms kinase activity, where inhibition of phosphorylation of a peptide substrate is measured as a function of compound concentration. Compounds to be tested, dissolved in DMSO (1 μL), are added to a white 384-well plate (Costar #3705). Working stocks of Fms kinase (Invitrogen #PV3249), biotin-(E4Y)10 substrate (Upstate Biotech, Cat#12-440), and ATP (Sigma, Cat#A-3377) are prepared in 25 mM Hepes pH 7.5, 0.5 mM MgCl2, 2 mM MnCl2, 2 mM DTT, 0.01% BSA, and 0.01% Tween-20. All components are added to the 384-well plate for a final concentration of 1 ng/well Fms, 30 nM biotin-(E4Y)10 (Upstate Biotechnology) and 100 μM ATP in a volume of 20 μL. Each sample is at 5% DMSO. The plate is then incubated for 20 minutes at 30° C. Just before use, working stocks of donor and acceptor beads from the AlphaScreen PY20 Detection Kit (PerkinElmer, Cat#676601M) are prepared in 25 mM Hepes pH 7.5, pH 7.4, 100 mM EDTA, 0.01% BSA. To stop the reaction, the plate is uncovered in the dark and 5 μL of Donor Beads solution (Streptavidin beads) is added to each well. The plate is incubated at room temperature for 20 minutes. Five microliters of Acceptor Beads solution (PY20 coated beads) are then added to each well. The final concentration of each bead is 10 μg/mL. The plates are incubated at room temperature for 60 minutes. Fluorescence signal is recorded on the Envision reader. Phosphorylated substrate results in binding of the PY20 antibody and association of the donor and acceptor beads such that signal correlates with kinase activity. The signal vs. compound concentration is used to determine the IC50.

For another test, the target named is T2, BCR-NTRK3 BaF3 cells (Homo sapiens, UniProt Q16288).
T2 construct: fused on or other part: P11274 (Breakpoint cluster region protein)
T2 sequence (Q16288 whole entry, the tested form may be a part): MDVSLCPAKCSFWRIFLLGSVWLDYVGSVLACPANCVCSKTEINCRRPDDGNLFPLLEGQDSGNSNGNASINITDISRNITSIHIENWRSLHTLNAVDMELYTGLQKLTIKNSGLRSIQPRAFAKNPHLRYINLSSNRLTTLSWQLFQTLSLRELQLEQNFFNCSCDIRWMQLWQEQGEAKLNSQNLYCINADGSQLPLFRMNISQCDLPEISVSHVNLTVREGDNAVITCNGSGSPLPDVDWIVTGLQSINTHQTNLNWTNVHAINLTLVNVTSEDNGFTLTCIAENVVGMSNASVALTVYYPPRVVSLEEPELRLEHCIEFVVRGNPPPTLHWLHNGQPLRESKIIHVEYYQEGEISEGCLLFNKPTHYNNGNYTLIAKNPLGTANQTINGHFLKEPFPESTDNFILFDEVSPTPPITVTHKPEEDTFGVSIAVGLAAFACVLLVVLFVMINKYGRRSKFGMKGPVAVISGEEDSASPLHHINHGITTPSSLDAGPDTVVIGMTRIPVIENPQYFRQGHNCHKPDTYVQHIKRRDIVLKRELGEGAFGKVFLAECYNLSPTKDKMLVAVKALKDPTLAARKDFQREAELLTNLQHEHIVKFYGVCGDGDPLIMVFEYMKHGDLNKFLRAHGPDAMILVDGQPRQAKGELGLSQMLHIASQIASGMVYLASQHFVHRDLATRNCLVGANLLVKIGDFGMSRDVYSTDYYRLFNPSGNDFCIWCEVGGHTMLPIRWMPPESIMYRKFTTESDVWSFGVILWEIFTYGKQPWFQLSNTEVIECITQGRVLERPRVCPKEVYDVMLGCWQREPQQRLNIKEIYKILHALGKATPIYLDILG
The test is described as follows: BaF3 BCR-NTRK3 cell proliferation assay (ATPlite). Type of test: cell-based. To be noted: read-out: Inhibition of Cell Proliferation IC50, BCR/BaF3 TrkC. How it is done: as §1, §2
Background: In ATP-based viability assays light output follows the ATP content of the culture.

The structures appear in SMILES notation.

Fms kinase, sequence (P07333 20-972): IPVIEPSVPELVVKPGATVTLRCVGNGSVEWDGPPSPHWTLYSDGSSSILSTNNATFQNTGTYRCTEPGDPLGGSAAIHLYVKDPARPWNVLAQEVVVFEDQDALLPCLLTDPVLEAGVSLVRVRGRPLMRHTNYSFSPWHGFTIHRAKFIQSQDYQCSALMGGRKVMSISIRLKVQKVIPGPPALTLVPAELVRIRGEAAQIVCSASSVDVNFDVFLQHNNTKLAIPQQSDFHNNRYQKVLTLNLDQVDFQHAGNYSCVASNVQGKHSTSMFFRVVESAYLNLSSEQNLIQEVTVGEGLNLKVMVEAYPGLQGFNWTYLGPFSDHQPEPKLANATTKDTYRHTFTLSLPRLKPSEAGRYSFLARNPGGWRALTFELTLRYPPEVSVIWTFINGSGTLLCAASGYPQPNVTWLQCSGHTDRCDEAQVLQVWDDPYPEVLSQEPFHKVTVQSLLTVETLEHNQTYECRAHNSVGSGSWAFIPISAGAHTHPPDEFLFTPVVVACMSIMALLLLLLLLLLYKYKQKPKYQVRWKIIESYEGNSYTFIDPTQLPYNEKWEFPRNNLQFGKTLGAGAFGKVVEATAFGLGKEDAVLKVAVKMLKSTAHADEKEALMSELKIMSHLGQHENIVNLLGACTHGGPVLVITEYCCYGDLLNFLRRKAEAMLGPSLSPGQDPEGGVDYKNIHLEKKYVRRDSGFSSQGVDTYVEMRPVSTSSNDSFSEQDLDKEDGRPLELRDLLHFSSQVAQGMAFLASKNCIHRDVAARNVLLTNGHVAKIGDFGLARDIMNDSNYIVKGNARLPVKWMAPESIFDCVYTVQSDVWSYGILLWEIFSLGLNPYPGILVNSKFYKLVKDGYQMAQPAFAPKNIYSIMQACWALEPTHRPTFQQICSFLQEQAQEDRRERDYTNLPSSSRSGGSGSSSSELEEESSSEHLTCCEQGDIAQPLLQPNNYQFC

On to `COc1ccc(Nc2ccc(C(=O)c3c[nH]c4ncnc(NC(C)C)c34)c(F)n2)cn1` [Compound P-4066, [2-fluoro-6-[(6-methoxy-3-pyridyl)amino]-3-pyridyl]-[4-(isopropylamino)-7H-pyrrolo[2,3-d]pyrimidin-5-yl]methanone], for which the IC50 at BCR-FMS BaF3 cells, at Fms kinase and at BCR-NTRK3 BaF3 cells was less than 10 nM in each case.
`COc1ccc(Nc2ccc(C(=O)c3c[nH]c4ncnc(NCC5CC5)c34)c(F)n2)cn1` [Compound P-4067, [4-(cyclopropylmethylamino)-7H-pyrrolo[2,3-d]pyrimidin-5-yl]-[2-fluoro-6-[(6-methoxy-3-pyridyl)amino]-3-pyridyl]methanone]: the IC50 at BCR-FMS BaF3 cells, at Fms kinase and on BCR-NTRK3 BaF3 cells was less than 10 nM throughout.
Turning to `CCCNc1ncnc2[nH]cc(C(=O)c3ccc(Nc4ccc(OC)nc4)nc3F)c12` [Compound P-4068, [2-fluoro-6-[(6-methoxy-3-pyridyl)amino]-3-pyridyl]-[4-(propylamino)-7H-pyrrolo[2,3-d]pyrimidin-5-yl]methanone], the IC50 at BCR-FMS BaF3 cells, at Fms kinase and at BCR-NTRK3 BaF3 cells was less than 10 nM in each case.
As for `COc1ccc(Nc2ccc(C(=O)c3c[nH]c4ncnc(N5CCCCC5)c34)c(F)n2)cn1` [Compound P-4069, [2-fluoro-6-[(6-methoxy-3-pyridyl)amino]-3-pyridyl]-[4-(1-piperidyl)-7H-pyrrolo[2,3-d]pyrimidin-5-yl]methanone], the figures for the IC50 at BCR-FMS BaF3 cells, on Fms kinase and on BCR-NTRK3 BaF3 cells were greater than 1000 nM, less than 1000 nM and greater than 1000 nM, respectively.
Turning to `COc1ccc(Nc2ccc(C(=O)c3c[nH]c4ncnc(N5CCOCC5)c34)c(F)n2)cn1` [Compound P-4070, [2-fluoro-6-[(6-methoxy-3-pyridyl)amino]-3-pyridyl]-(4-morpholino-7H-pyrrolo[2,3-d]pyrimidin-5-yl)methanone], the IC50 at BCR-FMS BaF3 cells, on Fms kinase and on BCR-NTRK3 BaF3 cells was greater than 1000 nM in each case.
In the case of `COc1ccc(Nc2ccc(C(=O)c3c[nH]c4ncnc(NCc5ccc(C(F)(F)F)nc5)c34)c(F)n2)cn1` [Compound P-4071, [2-fluoro-6-[(6-methoxy-3-pyridyl)amino]-3-pyridyl]-[4-[[6-(trifluoromethyl)-3-pyridyl]methylamino]-7H-pyrrolo[2,3-d]pyrimidin-5-yl]methanone], the IC50 is less than 100 nM at BCR-FMS BaF3 cells, less than 1000 nM on Fms kinase and less than 10 nM at BCR-NTRK3 BaF3 cells.
As for `COc1ccc(Nc2ccc(C(=O)c3c[nH]c4ncnc(N[C@@H](C)c5ccc(F)cc5)c34)c(F)n2)cn1` [Compound P-4072, [2-fluoro-6-[(6-methoxy-3-pyridyl)amino]-3-pyridyl]-[4-[[(1S)-1-(4-fluorophenyl)ethyl]amino]-7H-pyrrolo[2,3-d]pyrimidin-5-yl]methanone], the IC50 on BCR-FMS BaF3 cells is less than 100 nM; on Fms kinase, less than 100 nM; at BCR-NTRK3 BaF3 cells, less than 10 nM.
For `COc1ccc(Nc2ccc(C(=O)c3c[nH]c4ncnc(NCC5CCCO5)c34)c(F)n2)cn1` (stereo not drawn) [Compound P-4073, [2-fluoro-6-[(6-methoxy-3-pyridyl)amino]-3-pyridyl]-[4-(tetrahydrofuran-2-ylmethylamino)-7H-pyrrolo[2,3-d]pyrimidin-5-yl]methanone], the results for the IC50 at BCR-FMS BaF3 cells, at Fms kinase and on BCR-NTRK3 BaF3 cells were less than 100 nM, less than 100 nM and less than 10 nM, respectively.
On to `CCN1CCC(Nc2ncnc3[nH]cc(C(=O)c4ccc(Nc5ccc(OC)nc5)nc4F)c23)CC1` [Compound P-4074, [4-[(1-ethyl-4-piperidyl)amino]-7H-pyrrolo[2,3-d]pyrimidin-5-yl]-[2-fluoro-6-[(6-methoxy-3-pyridyl)amino]-3-pyridyl]methanone], for which the IC50 on BCR-FMS BaF3 cells was less than 1000 nM; at Fms kinase, less than 100 nM; at BCR-NTRK3 BaF3 cells it was less than 10 nM.
Consider `COc1ccc(Nc2ccc(C(=O)c3c[nH]c4ncnc(NC5CCCC5)c34)c(F)n2)cn1` [Compound P-4075, [4-(cyclopentylamino)-7H-pyrrolo[2,3-d]pyrimidin-5-yl]-[2-fluoro-6-[(6-methoxy-3-pyridyl)amino]-3-pyridyl]methanone], for which the IC50 at BCR-FMS BaF3 cells, at Fms kinase and at BCR-NTRK3 BaF3 cells was less than 10 nM throughout.
As to `COc1ccc(Nc2ccc(C(=O)c3c[nH]c4ncnc(NC5CCC5)c34)c(F)n2)cn1` [Compound P-4076, [4-(cyclobutylamino)-7H-pyrrolo[2,3-d]pyrimidin-5-yl]-[2-fluoro-6-[(6-methoxy-3-pyridyl)amino]-3-pyridyl]methanone], the figures for the IC50 on BCR-FMS BaF3 cells, at Fms kinase and on BCR-NTRK3 BaF3 cells were less than 100 nM, less than 10 nM and less than 10 nM, respectively.
Turning to `CCC(CC)Nc1ncnc2[nH]cc(C(=O)c3ccc(Nc4ccc(OC)nc4)nc3F)c12` [Compound P-4077, [4-(1-ethylpropylamino)-7H-pyrrolo[2,3-d]pyrimidin-5-yl]-[2-fluoro-6-[(6-methoxy-3-pyridyl)amino]-3-pyridyl]methanone], the IC50 at BCR-FMS BaF3 cells was less than 10 nM; at Fms kinase, less than 100 nM; on BCR-NTRK3 BaF3 cells it was less than 10 nM.
For the compound `CCC(C)Nc1ncnc2[nH]cc(C(=O)c3ccc(Nc4ccc(OC)nc4)nc3F)c12` (stereo not drawn) [Compound P-4078, [2-fluoro-6-[(6-methoxy-3-pyridyl)amino]-3-pyridyl]-[4-(sec-butylamino)-7H-pyrrolo[2,3-d]pyrimidin-5-yl]methanone], the IC50 on BCR-FMS BaF3 cells, at Fms kinase and at BCR-NTRK3 BaF3 cells was less than 10 nM throughout.
